Results: US20190284536A1, “EPITHELIAL TUMOR CELL CULTURES” (Beijing Percans Oncology Co., Ltd., priority 2016, published 2019)

System: human epithelial tumor cells
Conditions: DMEM/F12 based culture medium supplemented with BSA vs without; FIG. 10
Method: DF12: DMEM/F12 based culture medium. DF12+BSA: DMEM/12 based culture medium supplemented with BSA. Cell proliferation was measured by EdU incorporation. Error bars represent standard deviation (SD).

**Q.** Which “growth of human epithelial tumor cells (cell proliferation by EdU incorporation)” value does the source give for bovine serum albumin [BSA] here?
**A.** supports the growth
